Test results as given in ChEMBL document CHEMBL3045915, “Microwave-assisted, one-pot syntheses and fungicidal activity of polyfluorinated 2-benzylthiobenzothiazoles” (2006).

Experiments:
Type in all cases: functional
Colletotrichum gossypii = assay: Fungicidal activity against Colletotrichum gossypii assessed as inhibition of fungal growth at 50 ug/ml after 48 hr
Botrytis cinerea = assay: Fungicidal activity against Botryotinia fuckeliana Pers assessed as inhibition of fungal growth at 50 ug/ml after 48 hr
Dothiorella gregaria = assay: Fungicidal activity against Dothiorella gregaria assessed as inhibition of fungal growth at 50 ug/ml after 48 hr
Rhizoctonia solani = assay: Fungicidal activity against Rhizoctonia solani assessed as inhibition of fungal growth at 50 ug/ml after 48 hr

Structure (SMILES): Fc1ccccc1CSc1nc2c(F)cccc2s1
- inhibition at 50 µg/mL (Colletotrichum gossypii): 67%
- inhibition at 50 µg/mL (Botrytis cinerea): 81%
- inhibition at 50 µg/mL (Dothiorella gregaria): 78%
- inhibition at 50 µg/mL (Rhizoctonia solani): 82%

Structure (SMILES): Fc1cccc(F)c1CSc1nc2c(F)cccc2s1
- inhibition at 50 µg/mL (Colletotrichum gossypii): 52%
- inhibition at 50 µg/mL (Botrytis cinerea): 78%
- inhibition at 50 µg/mL (Dothiorella gregaria): 63%
- inhibition at 50 µg/mL (Rhizoctonia solani): 74%

Structure (SMILES): Fc1ccc(CSc2nc3c(F)cccc3s2)cc1F
- inhibition at 50 µg/mL (Colletotrichum gossypii): 78%
- inhibition at 50 µg/mL (Botrytis cinerea): 97%
- inhibition at 50 µg/mL (Dothiorella gregaria): 89%
- inhibition at 50 µg/mL (Rhizoctonia solani): 92%

Structure (SMILES): Fc1ccc2sc(SCc3ccccc3F)nc2c1
- inhibition at 50 µg/mL (Colletotrichum gossypii): 67%
- inhibition at 50 µg/mL (Botrytis cinerea): 83%
- inhibition at 50 µg/mL (Dothiorella gregaria): 81%
- inhibition at 50 µg/mL (Rhizoctonia solani): 82%

Structure (SMILES): Fc1ccc2sc(SCc3c(F)cccc3F)nc2c1
- inhibition at 50 µg/mL (Colletotrichum gossypii): 56%
- inhibition at 50 µg/mL (Botrytis cinerea): 78%
- inhibition at 50 µg/mL (Dothiorella gregaria): 74%
- inhibition at 50 µg/mL (Rhizoctonia solani): 80%

Structure (SMILES): Fc1ccc2sc(SCc3ccc(F)c(F)c3)nc2c1
- inhibition at 50 µg/mL (Colletotrichum gossypii): 74%
- inhibition at 50 µg/mL (Botrytis cinerea): 69%
- inhibition at 50 µg/mL (Dothiorella gregaria): 78%
- inhibition at 50 µg/mL (Rhizoctonia solani): 86%

Structure (SMILES): Fc1ccccc1CSc1nc2ccc(F)c(F)c2s1
- inhibition at 50 µg/mL (Colletotrichum gossypii): 74%
- inhibition at 50 µg/mL (Botrytis cinerea): 86%
- inhibition at 50 µg/mL (Dothiorella gregaria): 81%
- inhibition at 50 µg/mL (Rhizoctonia solani): 84%

Structure (SMILES): Fc1cccc(F)c1CSc1nc2ccc(F)c(F)c2s1
- inhibition at 50 µg/mL (Colletotrichum gossypii): 63%
- inhibition at 50 µg/mL (Botrytis cinerea): 69%
- inhibition at 50 µg/mL (Dothiorella gregaria): 81%
- inhibition at 50 µg/mL (Rhizoctonia solani): 82%

Structure (SMILES): Fc1ccc(CSc2nc3ccc(F)c(F)c3s2)cc1F
- inhibition at 50 µg/mL (Colletotrichum gossypii): 80%
- inhibition at 50 µg/mL (Botrytis cinerea): 72%
- inhibition at 50 µg/mL (Dothiorella gregaria): 85%
- inhibition at 50 µg/mL (Rhizoctonia solani): 85%

Structure (SMILES): Fc1ccccc1CSc1nc2c(Cl)cc(C(F)(F)F)cc2s1
- inhibition at 50 µg/mL (Colletotrichum gossypii): 70%
- inhibition at 50 µg/mL (Botrytis cinerea): 83%
- inhibition at 50 µg/mL (Dothiorella gregaria): 70%
- inhibition at 50 µg/mL (Rhizoctonia solani): 83%

Structure (SMILES): Fc1cccc(F)c1CSc1nc2c(Cl)cc(C(F)(F)F)cc2s1
- inhibition at 50 µg/mL (Colletotrichum gossypii): 44%
- inhibition at 50 µg/mL (Botrytis cinerea): 67%
- inhibition at 50 µg/mL (Dothiorella gregaria): 62%
- inhibition at 50 µg/mL (Rhizoctonia solani): 69%

Structure (SMILES): Fc1ccc(CSc2nc3c(Cl)cc(C(F)(F)F)cc3s2)cc1F
- inhibition at 50 µg/mL (Colletotrichum gossypii): 37%
- inhibition at 50 µg/mL (Botrytis cinerea): 67%
- inhibition at 50 µg/mL (Dothiorella gregaria): 35%
- inhibition at 50 µg/mL (Rhizoctonia solani): 40%

Structure (SMILES): CC(C)(C)C(=O)C(Oc1ccc(Cl)cc1)n1cncn1 (configuration not stated) [TRIADIMEFON]
- inhibition at 50 µg/mL (Colletotrichum gossypii): 95%
- inhibition at 50 µg/mL (Botrytis cinerea): 84%
- inhibition at 50 µg/mL (Dothiorella gregaria): 61%
- inhibition at 50 µg/mL (Rhizoctonia solani): 90%
